The subject of assay [1] is N171-82Q HD mice. The experiment in a line: High-altitude balance beam (5 mm) experiment 2, HD mice. Format: in vivo, mouse. As to conditions: 5 mg/kg/d intragastric. The protocol: (§1) 7-week-old N171-82Q HD male mice were paired with female B6C3F1/J hybrid mice to obtain newborn mice. From 21 days of age, male mice were housed in separate cages. 0.5 cm of mouse tail tissue was removed to extract DNA to determine the genotype of the mouse, such that N171-82Q HD mice and WT mice needed for the experiment were obtained. The mice were randomly divided into WT Vehicle group (normal mice), WT test compound group (administration group of normal mice, 5 mg/kg/d, n=10), HD Vehicle group (blank group of HD mice, n=15), HD test compound group (administration groups 1-5 of HD mice, 5 mg/kg/d, n=10). The test compound was suspended in 1% CMC-Na solution and administered by intragastric administration until the end of the study. The weights of the mice were measured every week. Behavioral tests were performed at 12 weeks, 18 weeks, and 24 weeks of age to investigate motor function. At 20 weeks, 3 samples of tissue from each group were used for western blotting and immunohistochemistry. At 24 weeks, MRI scans were performed. At the end of the study, the effect of the test compound on the mortality of mice was evaluated.
(§2) The software Sigmaplot 13.0 was used for statistical analysis of the data, and the data of each group was expressed as mean standard error (x±SEM). Behavioral test results were analyzed using two-way (genotype and processing factor) ANOVA and post-ho tests, the comparison and statistics of weight data were performed using two-way (genotype and age) ANOVA of repeated measures, and mortality was counted using Kaplan-Meier method. Other measurement data were analyzed by one-way ANOVA. P<0.05 was considered statistically significant.
(§3) The motor function of mice was evaluated by the rotarod experiment and three types of balance beam experiments. The shorter the time for mouse to cross the balance beam, and the longer the time to drop, the stronger the coordination ability of the mouse.
(§4) A square balance beam with a length of 100 cm and a width of 11 mm was placed at a 45-degree angle to the horizontal ground. A black box (12×12×12 cm) was placed at the end of the balance beam, and the starting platform was illuminated by bright lights. Spacers were placed under the balance beam to provide cushioning in case that the animal falls off the beam. One hour before the test, the mice were trained to cross the beam three times at one-eighth, one-quarter, and full-length distances from the black box, respectively. If the mice stopped walking during training, they were gently pressed with long forceps on the tail to encourage movement. After the training experiment, the mice rested for at least one hour in an undisturbed environment. In the experiment, the maximum time for each mouse to cross the balance beam was set to 60 seconds. If the time for crossing the beams was greater than 60 seconds, it was recorded as 60 seconds.
a square balance beam with a length of 80 cm and a width of 5 mm was place at a height of about 50 cm from the ground. The following steps are the same as the slope balance beam experiment.

The subject of assay [2] is N171-82Q HD mice. The experiment in a line: In vivo MRI scan and brain volume measurement, HD mice. Set-up: species or system mouse. Particulars: 5 mg/kg/d, administered until 24 weeks, n = 4. The procedure: as §1
The WT Vehicle group, WT test compound group, HD Vehicle group and HD test compound group were administered until 24 weeks, and 4 mice in each group were taken for in vivo MRI scanning and brain volume measurement. A 9.4 T MRI scanner equipped with three-axis gradient and animal imaging probes was used. The mice were anesthetized with 1% isoflurane. The breath of mice was monitored, and constant temperature was maintained throughout the scan. Three-dimensional T2 weighted fast spin echo sequence technology was used to obtain images. The imaging resolution and contrast of this technology were sufficient to automatically describe the volume of the mouse brain and substructures. The parameters were as follows: echo time (TE)/repetition time (TR) ^1/440/700 ms, resolution ^1/40.1×0.1×0.1 mm, echo train length ^1/44, average number ^1/42 and flip angle ^1/4408. The instrument contained a powerful linux cluster that can encode and run large-scale deformation diffusion metric maps (LDDMM) to obtain high-intensity standardized images. These transformations encoded morphological differences between images and analyzed based on deformation morphological measurements (DBM) to detect regional changes in brain volume. The volume of the whole brain (Brain), […] was analyzed.
The MRI scanning technology was used to analyze the morphological differences between the experimental object and the template image, and the LDDMM method was used to calculate and analyze the brain tissue structure of the mouse. The statistical results of the brain volume, striatum volume, and neurocortex volume of the test compound Example 1 are shown in FIG. 3, in which FIG. 3A is the statistical results of the whole brain volume, and FIG. 3B is the statistical results of striatum volume, and FIG. 3C is the statistical results of neurocortex volume.

The test system of assay [3] is N171-82Q HD mice. Put plainly: High-altitude balance beam (11 mm) experiment 1, HD mice. The assay is classed as in vivo, mouse. As to conditions: 5 mg/kg/d intragastric. The procedure: as §1, §2, §3, §4
a round balance beam with a length of 80 cm and a diameter of 11 mm was place at a height of about 50 cm from the ground. The following steps are the same as the slope balance beam experiment.

Molecules are shown by their SMILES. Marks after values point to notes of the source that are not given here.

In the case of `O=c1cc(-c2ccc(N3CCCCC3)cc2)oc2c(O)c(O)ccc12` [Example 1, 7,8-dihydroxy-2-(4-(piperidin-1-yl)phenyl)-4H-chromen-4-one], the “Time for crossing the beams, high-altitude balance beam (5 mm)” value (from here on “Time for crossing the beams … (5 mm)”) in the assay on N171-82Q HD mice [1] (12 w) was 13.09 ± 4.39 s; in the assay with N171-82Q HD mice [1] (18 w), 12.09 ± 3.27 s; in the assay on N171-82Q HD mice [1] (24 w), 13.91 ± 3.33 s. In the assay on N171-82Q HD mice [2], the “MRI volume, Neurocortex” value is given as 18.90 ± 0.341** mm^3. The “MRI volume, Striatum” value with N171-82Q HD mice [2] is 79.47 ± 1.079** mm^3. For the same molecule, in the assay on N171-82Q HD mice [2], the “MRI volume, Whole brain” value is 460.47 ± 2.145** mm^3. Moreover, the “Time for crossing the beams, high-altitude balance beam (11 mm)” value (shortened to “Time for crossing the beams … (11 mm)”) worked out at 8.20 ± 1.64 s in the assay on N171-82Q HD mice [3] (12 w), 7.55 ± 2.42 s with N171-82Q HD mice [3] (18 w) and 9.18 ± 3.84 s with N171-82Q HD mice [3] (24 w).

Turning to `COc1ccc2c(=O)cc(-c3ccc(N4CCCCC4)cc3)oc2c1OC` [Example 2, 7,8-dimethoxy-2-(4-(piperidin-1-yl)phenyl)-4H-chromen-4-one], the “Time for crossing the beams … (5 mm)” value with N171-82Q HD mice [1] (12 w) turned out to be 12.13 ± 4.97 s; in the assay with N171-82Q HD mice [1] (18 w), 13.96 ± 2.74 s; in the assay on N171-82Q HD mice [1] (24 w), 14.32 ± 5.44 s. The “MRI volume, Neurocortex” value with N171-82Q HD mice [2] is given as 18.68 ± 0.598** mm^3. The “MRI volume, Striatum” value in the assay with N171-82Q HD mice [2] is listed as 79.10 ± 0.976** mm^3. Also, in the assay on N171-82Q HD mice [2], the “MRI volume, Whole brain” value is given as 449.97 ± 7.279** mm^3. In addition, the “Time for crossing the beams … (11 mm)” value worked out at 8.98 ± 1.75 s with N171-82Q HD mice [3] (12 w), 8.59 ± 2.18 s in the assay on N171-82Q HD mice [3] (18 w) and 9.68 ± 2.97 s in the assay with N171-82Q HD mice [3] (24 w).

As for `CN(C)C1CCN(c2ccc(-c3cc(=O)c4ccc(O)c(O)c4o3)cc2)CC1` [Example 3, 2-(4-(4-(dimethylamino)piperidin-1-yl)phenyl)-7,8-dihydroxy-4H-chromen-4-one], the “Time for crossing the beams … (5 mm)” value in the assay with N171-82Q HD mice [1] (12 w) amounted to 12.20 ± 4.45 s; in the assay on N171-82Q HD mice [1] (18 w), 12.99 ± 4.72 s; with N171-82Q HD mice [1] (24 w) it was 13.11 ± 5.30 s. In addition, the “MRI volume, Neurocortex” value in the assay with N171-82Q HD mice [2] was 19.05 ± 0.997** mm^3. Besides, the “MRI volume, Striatum” value in the assay on N171-82Q HD mice [2] was 80.34 ± 1.238** mm^3. Besides, in the assay with N171-82Q HD mice [2], the “MRI volume, Whole brain” value is 465.33 ± 9.218** mm^3. The results for the “Time for crossing the beams … (11 mm)” value in the assay on N171-82Q HD mice [3] (12 w), in the assay with N171-82Q HD mice [3] (18 w) and with N171-82Q HD mice [3] (24 w) were 7.94 ± 1.64 s, 8.15 ± 1.96 s and 8.38 ± 3.78 s, respectively.

Regarding `CC1(C)CCN(c2ccc(-c3cc(=O)c4ccc(O)c(O)c4o3)cc2)CC1` [Example 4, 2-(4-(4,4-dimethylpiperidin-1-yl)phenyl)-7,8-dihydroxy-4H-chromen-4-one], the “Time for crossing the beams … (5 mm)” value with N171-82Q HD mice [1] (12 w) worked out at 13.22 ± 4.59 s; in the assay on N171-82Q HD mice [1] (18 w) it was 13.88 ± 5.63 s; in the assay on N171-82Q HD mice [1] (24 w), 15.92 ± 7.87 s. Also, in the assay with N171-82Q HD mice [2], the “MRI volume, Neurocortex” value was 18.59 ± 0.899** mm^3. The “MRI volume, Striatum” value with N171-82Q HD mice [2] is on record as 79.03 ± 1.834** mm^3. In addition, the “MRI volume, Whole brain” value with N171-82Q HD mice [2] is 461.31 ± 3.451** mm^3. Further, the “Time for crossing the beams … (11 mm)” value in the assay on N171-82Q HD mice [3] (12 w) came out at 8.57 ± 2.12 s; with N171-82Q HD mice [3] (18 w), 8.99 ± 2.29 s; in the assay with N171-82Q HD mice [3] (24 w) it was 9.38 ± 2.94 s.

In the case of `CC1CC(C)CN(c2ccc(-c3cc(=O)c4ccc(O)c(O)c4o3)cc2)C1` (stereo not drawn) [Example 5, 2-(4-(3,5-dimethylpiperidin-1-yl)phenyl)-7,8-dihydroxy-4H-chromen-4-one], the “Time for crossing the beams … (5 mm)” value in the assay on N171-82Q HD mice [1] (12 w) is 14.25 ± 5.34 s; in the assay on N171-82Q HD mice [1] (18 w) it was 14.98 ± 5.05 s; in the assay with N171-82Q HD mice [1] (24 w), 16.80 ± 5.97 s. The “MRI volume, Neurocortex” value in the assay on N171-82Q HD mice [2] is 19.01 ± 0.557** mm^3. Besides, the “MRI volume, Striatum” value with N171-82Q HD mice [2] was 79.43 ± 0.898** mm^3. In addition, the “MRI volume, Whole brain” value in the assay on N171-82Q HD mice [2] is reported as 462.19 ± 2.178** mm^3. Further, the “Time for crossing the beams … (11 mm)” value was determined as 8.04 ± 1.67 s with N171-82Q HD mice [3] (12 w), 8.61 ± 3.25 s with N171-82Q HD mice [3] (18 w) and 9.77 ± 4.89 s with N171-82Q HD mice [3] (24 w).

(Values after patent US20200390755A1, “COMPOUND FOR TREATING NERVOUS SYSTEM DISEASES AND USE THEREOF” (SHAANXI MICOT TECHNOLOGY CO., LTD., priority 2018, published 2020).)
